The text below walks through data of patent US20250034165A1, “COMPOUND CONTAINING CYCLOALKYL OR HALOALKYL” (CHIA TAI TIANQING PHARMACEUTICAL GROUP CO., LTD., priority 2021, published 2025).

Where two headings read alike, the source gives them in different places. Where only a bound is given, the exact number is not on record here.

Data set [1] in a line: In vitro stability in liver microsomes. The class given is in vitro ADME. The conditions noted are these: Human liver microsome. (In general: Liver microsomes are a subcellular fraction often used to study metabolism.)
For data set [2], the system named is BAF3-EGFR (del19/T790M/C797S) cells. Put plainly: Inhibition of proliferation of BAF3-EGFR (Del19/T790M/C797S) cells, CCK-8. It counts as cell-based. The conditions noted are these: 72 h, read-out: BAF3(EGFR T790M Del19 C797S) cell inhibitory activity IC50. The method, boiled down:
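Cells seeded at 1.0×10^5 cells/mL in RPMI + 10% FBS, cultured overnight at 37° C, 5% CO2, then compound added in duplicate wells, with untreated cells as negative control. Inhibition rate calculated against negative-control and blank means. IC50 obtained from four-parameter fit of inhibition versus log concentration.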

The test system of data set [3] is PC-9 EGFR-Del19-T790M-C797S cells. As to the kind of experiment: Inhibition of proliferation of PC-9-EGFR (Del19 T790M C797S) cells, CCK-8. The class given is cell-based. The conditions noted are these: 72 h, read-out: PC-9-EGFR (Del19 T790M C797S) cell inhibitory activity IC50. The method, boiled down:
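Cells seeded at 2×10^4 cells/mL were treated 72 h with compound at 1000 nM-0.06 nM final, in replicate wells. CCK-8 absorbance at 450 nm after 2 h gave inhibition rate relative to negative control and blank. IC50 from four-parameter fit against log concentration.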

Take `C[C@H](Nc1ccc2c(c1)N/C1=N\C(=O)c3cc(F)nc(c3)-c3cnn(C)c3OCCC[C@@H](C3CC3)CN12)C(F)(F)F` [Example 9]: the “Stability in liver microsomes (residual %, T = 60 min)” value (from here on “Stability … (residual %, T = 60 min)”) in data set [1] came out at 59.54%.

On to `Cc1cc2cc(n1)-c1cnn(C)c1OCCC[C@@H](C1CC1)CN1/C(=N/C2=O)Nc2cc(N[C@H]3CC[C@@H](N(C)C)CC3)ccc21` [Example 26], for which the IC50 in data set [2] is under 1 nM; in data set [3], under 50 nM. Moreover, the “Stability … (residual %, T = 60 min)” value in data set [1] stood at 98.30%.

Regarding `Cc1cc2cc(n1)-c1cnn(C)c1OCCC[C@@H](C1CC1)CN1/C(=N/C2=O)Nc2cc(N[C@H](C)C3COC3)ccc21` [Example 39], the IC50 is under 1 nM in data set [2] and under 50 nM in data set [3].

As to `Cc1cc2cc(n1)-c1cnn(C)c1OCCC[C@@H](C1CC1)CN1/C(=N/C2=O)Nc2cc(N[C@H]3CC[C@H](N(C)C)CC3)ccc21` [Example 25], the IC50 in data set [2] is under 1 nM; in data set [3], under 50 nM. Besides, the “Stability … (residual %, T = 60 min)” value in data set [1] was 103.07%.

For the molecule `Cc1cc2cc(n1)-c1cnn(C)c1OCCC[C@@H](C1CC1)CN1/C(=N/C2=O)Nc2cc(NC3(C)COC3)ccc21` [Example 29], the IC50 was under 1 nM in data set [2] (Ba/F3 EGFR-Del19/T790M/C797S) and under 50 nM in data set [3].

For `Cc1cc2cc(n1)-c1cnn(C)c1OCCC[C@@H](C1CC1)CN1/C(=N/C2=O)Nc2ccc(NCCN(C)C)cc21` [Example 28], the IC50 was under 1 nM in data set [2] (Ba/F3 EGFR-Del19/T790M/C797S) and under 50 nM in data set [3].

For orientation: IC50 means the concentration that inhibits the measured activity by half.
